Assays:
[1] = target: T1, unphosphorylated c-FMS kinase (uFMS, Seq. ID no. 1) (Homo sapiens, UniProt P07333); assay: uFMS kinase assay (pyruvate kinase/lactate dehydrogenase coupled); assay type: biochemical; settings: ATP 500 μM
T1 construct: purchased Millipore
T1 sequence (P07333 538-972): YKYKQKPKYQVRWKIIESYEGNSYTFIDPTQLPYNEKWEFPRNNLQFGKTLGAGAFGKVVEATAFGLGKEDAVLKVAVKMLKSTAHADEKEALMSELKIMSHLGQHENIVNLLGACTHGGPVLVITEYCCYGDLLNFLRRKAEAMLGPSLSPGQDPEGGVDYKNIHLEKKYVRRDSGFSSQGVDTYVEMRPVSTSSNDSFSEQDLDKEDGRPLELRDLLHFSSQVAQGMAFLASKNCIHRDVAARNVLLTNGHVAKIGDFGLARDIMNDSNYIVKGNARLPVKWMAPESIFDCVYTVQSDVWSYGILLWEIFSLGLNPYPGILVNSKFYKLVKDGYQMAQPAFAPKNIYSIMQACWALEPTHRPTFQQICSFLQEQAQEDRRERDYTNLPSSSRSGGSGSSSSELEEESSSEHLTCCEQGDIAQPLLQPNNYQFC
Procedure: In this assay, the oxidation of NADH (thus the decrease at A340 nm) was continuously monitored spectrophometrically. The reaction mixture (100 μL) contained FMS (purchased from Millipore) (10 nM), polyE4Y (1 mg/mL), MgCl2 (10 mM), pyruvate kinase (4 units), lactate dehydrogenase (0.7 units), phosphoenol pyruvate (1 mM), NADH (0.28 mM) and ATP (500 μM) in 90 mM Tris buffer containing 0.2% octyl-glucoside and 1% DMSO, pH 7.5. The inhibition reaction was started by mixing serial diluted test compound with the above reaction mixture. The absorption at 340 nm was monitored continuously for 4 hours at 30° C. on Synergy 2 plate reader. The reaction rate was calculated using the 3 to 4 h time frame. Percent inhibition was obtained by comparison of reaction rate with that of a control (i.e. in the absence of test compound). IC50 values were calculated from a series of percent inhibition values determined at a range of inhibitor concentrations using software routines as implemented in the GraphPad Prism software package.

[2] = target: T2, unphosphorylated c-KIT kinase (uKIT, Seq. ID no. 2) (Homo sapiens, UniProt P10721); assay: uKit kinase assay (pyruvate kinase/lactate dehydrogenase coupled); assay type: biochemical; settings: ATP 2000 μM
T2 construct: uKit with N-terminal GST fusion used for
Procedure: In this assay, the oxidation of NADH (thus the decrease at A340 nm) was continuously monitored spectrophometrically. […] The inhibition reaction was started by mixing serial diluted test compound with the above reaction mixture. The absorption at 340 nm was monitored continuously for 4 hours at 30° C. on Synergy 2 plate reader (BioTech).

[3] = target: T3, unphosphorylated PDGFRβ kinase (uPDGFRβ, Seq. ID No. 3) (Homo sapiens, UniProt P09619); assay: Unphosphorylated PDGFRβ kinase assay (pyruvate kinase/lactate dehydrogenase coupled); assay type: biochemical; settings: ATP 500 μM
T3 construct: purchased DeCode
Description: Unphosyhorylated PDGFRβ (uPDGFRβkinase (Seq. ID No. 3) assay

M-NFS-60 cells = assay: M-NFS-60 cell proliferation assay; assay type: cell-based; settings: 67 h incubation, resazurin
Procedure: M-NFS-60 Cell Proliferation Assay A serial dilution of test compound was dispensed into a 384-well black clear bottom plate (Corning, Corning, N.Y.). Two thousand five hundred cells were added per well in 50 μL complete growth medium. […] IC50 values were calculated from a series of percent inhibition values determined at a range of inhibitor concentrations using software routines as implemented in the GraphPad Prism software package.

osteoclast precursors = assay: Osteoclast tartrate-resistant acid phosphatase assay; assay type: cell-based; settings: Osteoclast; 7-14 days, RANKL and M-CSF
[4] = target: T4, phospho-FMS in THP-1 cells (Homo sapiens, UniProt P07333); assay: Phospho-FMS ELISA assay in THP-1 cells; assay type: cell-based; settings: 4 hours compound, M-CSF stimulated; read-out: pFMS inhibition in THP-1 cells
T4 construct: endogenous in cells; host or cells: THP-1 (ATCC TIB-202)
Procedure: In a separate 96 well black clear bottom plate, one hundred and fifty thousand THP-1 cells were added per well in 100 μL in assay medium. Fifty microliters of diluted compound was then added to the cells. […] Lysates were prepared and used to perform the phospho-FMS ELISA as described by the manufacturer (catalog #DYC3268, R & D Systems, Minneapolis, Minn.). GraphPad Prism was used to calculate IC50 values obtained from data generated from the ELISA assay.

c-FMS = assay: cFOS mRNA production in a c-FMS mouse spleen pharmacodynamic model; assay type: in vivo; settings: out to 8 h post 30 mg/kg single oral dose, read-out: inhibition of cFOS mRNA levels
Procedure: Analysis of cFOS mRNA Production in a c-FMS Mouse Spleen Pharmacodynamic Model To examine the in vivo modulation of FMS activity by compounds of formula I, spleen samples from female DBA/1 mice were collected and analyzed for M-CSF stimulated production of cFOS mRNA. Briefly, six to seven week old female Taconic DBA/1BO J Bom Tac mice were treated with a single oral dose (by gavage) of either vehicle or compound. Plasma and spleen samples are collected from four mice at each timepoint 2, 4, 6, 8, 12, 18, and 24 hours after dosing. Fifteen minutes prior to euthanasia, all mice were injected IV with 1 μg (100 μL fixed volume) of M-CSF. M-CSF, Recombinant Mouse Macrophage Colony Stimulating Factor (36.4 kDa homodimer, ≧98% purity) was obtained from Gibco. All procedures carried out in this experiment were conducted in compliance with all the laws, regulations and guidelines of the National Institutes of Health (NIH). cFOS mRNA levels in spleen extracts were determined using a quantitative reverse transcriptase PCR kit from Life Technologies. Plasma levels of FMS inhibitors were determined by mass spectrometer analysis. The degree of FMS inhibition was correlative to the amount of decrease observed in cFOS mRNA levels in the spleen samples of treated animals compared to vehicle.

T4 sequence (P07333 20-972): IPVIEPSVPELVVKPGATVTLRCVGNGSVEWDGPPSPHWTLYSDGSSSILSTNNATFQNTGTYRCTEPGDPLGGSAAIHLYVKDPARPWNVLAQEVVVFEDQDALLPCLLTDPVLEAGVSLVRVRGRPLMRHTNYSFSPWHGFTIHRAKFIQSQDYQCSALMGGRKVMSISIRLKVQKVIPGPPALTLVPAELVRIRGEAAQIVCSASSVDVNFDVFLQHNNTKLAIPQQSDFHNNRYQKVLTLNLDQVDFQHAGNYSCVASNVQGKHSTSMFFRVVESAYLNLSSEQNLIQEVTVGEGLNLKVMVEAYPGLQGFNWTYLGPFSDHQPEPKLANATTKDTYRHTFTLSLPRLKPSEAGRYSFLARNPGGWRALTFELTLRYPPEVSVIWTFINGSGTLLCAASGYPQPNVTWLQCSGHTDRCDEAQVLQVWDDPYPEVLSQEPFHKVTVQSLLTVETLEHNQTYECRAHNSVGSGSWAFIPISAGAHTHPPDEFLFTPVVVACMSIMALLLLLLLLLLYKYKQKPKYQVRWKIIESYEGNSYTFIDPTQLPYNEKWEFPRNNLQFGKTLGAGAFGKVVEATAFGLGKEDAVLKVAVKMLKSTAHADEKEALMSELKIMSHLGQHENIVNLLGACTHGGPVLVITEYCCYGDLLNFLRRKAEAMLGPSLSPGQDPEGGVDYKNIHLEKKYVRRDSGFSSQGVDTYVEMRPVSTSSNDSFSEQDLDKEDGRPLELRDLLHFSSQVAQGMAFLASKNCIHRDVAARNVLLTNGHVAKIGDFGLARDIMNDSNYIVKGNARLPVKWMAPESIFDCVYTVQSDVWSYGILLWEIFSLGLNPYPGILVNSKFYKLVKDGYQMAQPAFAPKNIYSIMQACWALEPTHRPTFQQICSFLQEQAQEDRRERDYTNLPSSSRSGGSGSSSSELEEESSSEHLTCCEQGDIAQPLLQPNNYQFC
T3 sequence (P09619 557-1105): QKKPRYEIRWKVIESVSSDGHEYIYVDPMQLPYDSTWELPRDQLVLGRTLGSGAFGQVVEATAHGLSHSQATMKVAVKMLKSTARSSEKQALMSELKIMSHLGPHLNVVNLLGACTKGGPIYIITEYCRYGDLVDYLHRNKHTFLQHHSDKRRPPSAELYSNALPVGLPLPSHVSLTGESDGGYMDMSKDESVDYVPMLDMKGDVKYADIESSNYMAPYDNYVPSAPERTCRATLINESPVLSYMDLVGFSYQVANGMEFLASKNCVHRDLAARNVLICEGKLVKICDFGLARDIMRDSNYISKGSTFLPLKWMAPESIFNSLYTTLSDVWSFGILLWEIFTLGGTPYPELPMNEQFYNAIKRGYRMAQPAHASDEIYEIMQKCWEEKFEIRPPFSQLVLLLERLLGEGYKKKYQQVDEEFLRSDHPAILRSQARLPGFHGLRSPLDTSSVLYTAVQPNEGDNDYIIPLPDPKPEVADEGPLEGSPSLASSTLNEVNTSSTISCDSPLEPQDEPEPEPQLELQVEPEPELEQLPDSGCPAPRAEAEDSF
T2 sequence (P10721 with tags, fused parts or gaps): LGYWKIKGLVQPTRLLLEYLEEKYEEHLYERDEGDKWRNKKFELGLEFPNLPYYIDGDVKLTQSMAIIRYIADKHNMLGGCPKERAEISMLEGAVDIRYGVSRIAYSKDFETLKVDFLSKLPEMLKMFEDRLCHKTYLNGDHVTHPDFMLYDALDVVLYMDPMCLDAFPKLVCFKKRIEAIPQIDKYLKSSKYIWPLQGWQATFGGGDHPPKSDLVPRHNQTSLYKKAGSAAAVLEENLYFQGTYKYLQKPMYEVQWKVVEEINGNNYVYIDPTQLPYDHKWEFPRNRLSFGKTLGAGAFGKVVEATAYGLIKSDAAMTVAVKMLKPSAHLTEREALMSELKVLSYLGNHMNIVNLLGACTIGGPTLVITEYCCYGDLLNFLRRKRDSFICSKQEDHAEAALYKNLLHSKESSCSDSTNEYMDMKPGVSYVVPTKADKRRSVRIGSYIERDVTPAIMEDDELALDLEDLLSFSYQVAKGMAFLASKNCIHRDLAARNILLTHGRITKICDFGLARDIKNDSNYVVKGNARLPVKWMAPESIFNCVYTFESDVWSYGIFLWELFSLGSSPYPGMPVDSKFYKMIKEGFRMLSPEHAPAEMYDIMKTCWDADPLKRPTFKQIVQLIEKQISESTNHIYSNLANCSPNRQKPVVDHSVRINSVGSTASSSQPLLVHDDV

Compound	IC50 [1]	IC50 [2]	IC50 [3]	IC50 (M-NFS-60 cells)	IC50 (osteoclast precursors)	IC50 [4]	inhibition in vivo at 30 mg/kg (c-FMS)
CNC(=O)c1cc(Oc2ccc(NC(=O)NC(=O)C(C)(C)C)nc2)ccn1 [Example 34, N-methyl-4-((6-(3-pivaloylureido)pyridin-3-yl)oxy)picolinamide]	< 10 nM	> 1000 nM	> 1000 nM	10 to 100 nM	10 to 100 nM	10 to 100 nM	≥ 50%
CC(C)(C)C(=O)NC(=O)Nc1ccc(Oc2ccnc(NC(=O)N3CCNCC3)c2)cn1 [Example 83, N-(4-((6-(3-pivaloylureido)pyridin-3-yl)oxy)pyridin-2-yl)piperazine-1-carboxamide]	< 10 nM	> 1000 nM	100 to 1000 nM	10 to 100 nM	< 10 nM	< 10 nM	≥ 50%
COC(C)(C)C(=O)NC(=O)Nc1ccc(Oc2ccnc(NC(C)=O)c2)cn1 [Example 26, N-((5-((2-acetamidopyridin-4-yl)oxy)pyridin-2-yl)carbamoyl)-2-methoxy-2-methylpropanamide]	< 10 nM	> 1000 nM	100 to 1000 nM	10 to 100 nM	< 10 nM	< 10 nM	≥ 50%
Cc1nc(NC(=O)NC(=O)C(C)(C)C)ccc1Oc1ccnc(NC(=O)N(C)C)c1 [Example 62, N-((5-((2-(3,3-dimethylureido)pyridin-4-yl)oxy)-6-methylpyridin-2-yl)carbamoyl)pivalamide]	< 10 nM	> 1000 nM	> 1000 nM	< 10 nM	10 to 100 nM	< 10 nM	≥ 50%
CN1CCC(C(=O)Nc2cc(Oc3ccc(NC(=O)NC(=O)C(C)(C)C)nc3)ccn2)CC1 [Example 21, 1-methyl-N-(4-((6-(3-pivaloylureido)pyridin-3-yl)oxy)pyridin-2-yl)piperidine-4-carboxamide]	< 10 nM	> 1000 nM	> 1000 nM	10 to 100 nM	< 10 nM	10 to 100 nM	≥ 50%
Cc1nc(NC(=O)NC(=O)C(C)(C)C)ccc1Oc1ccnc(NC(=O)C2CC2)c1 [Example 11, N-(4-((2-methyl-6-(3-pivaloylureido)pyridin-3-yl)oxy)pyridin-2-yl)cyclopropanecarboxamide]	< 10 nM	> 1000 nM	10 to 100 nM	< 10 nM	< 10 nM	< 10 nM	≥ 50%
CN(C)C(=O)Nc1cc(Oc2ccc(NC(=O)NC(=O)C(C)(C)C)nc2)ccn1 [Example 23, N-((5-((2-(3,3-dimethylureido)pyridin-4-yl)oxy)pyridin-2-yl)carbamoyl)pivalamide]	< 10 nM	> 1000 nM	100 to 1000 nM	< 10 nM	< 10 nM	< 10 nM	≥ 50%
CC(=O)Nc1cc(Oc2ccc(NC(=O)NC(=O)C(C)(C)C)nc2)ccn1 [Example 3, N-((5-((2-acetamidopyridin-4-yl)oxy)pyridin-2-yl)carbamoyl)pivalamide]	< 10 nM	> 1000 nM	> 1000 nM	10 to 100 nM	< 10 nM	< 10 nM	≥ 50%
CC(=O)Nc1cc(Oc2ccc(NC(=O)NC(=O)C3CCCC3)nc2C)ccn1 [Example 8, N-((5-((2-acetamidopyridin-4-yl)oxy)-6-methylpyridin-2-yl)carbamoyl)cyclopentanecarboxamide]	< 10 nM	100 to 1000 nM	10 to 100 nM	< 10 nM	< 10 nM	< 10 nM	≥ 50%
CCC(=O)Nc1cc(Oc2ccc(NC(=O)NC(=O)C(C)(C)C)nc2)ccn1 [Example 24, N-((5-((2-propionamidopyridin-4-yl)oxy)pyridin-2-yl)carbamoyl)pivalamide]	10 to 100 nM	100 to 1000 nM	100 to 1000 nM	10 to 100 nM	< 10 nM	< 10 nM	
CCN1CCN(C(=O)Nc2cc(Oc3ccc(NC(=O)NC(=O)C(C)(C)C)nc3)ccn2)CC1 [Example 80, 4-ethyl-N-(4-((6-(3-pivaloylureido)pyridin-3-yl)oxy)pyridin-2-yl)piperazine-1-carboxamide]	< 10 nM	> 1000 nM	100 to 1000 nM	10 to 100 nM	< 10 nM	< 10 nM	
CN1CCN(C2CCN(C(=O)Nc3cc(Oc4ccc(NC(=O)NC(=O)C(C)(C)C)nc4)ccn3)CC2)CC1 [Example 81, 4-(4-methylpiperazin-1-yl)-N-(4-((6-(3-pivaloylureido)pyridin-3-yl)oxy)pyridin-2-yl)piperidine-1-carboxamide]	< 10 nM	> 1000 nM	100 to 1000 nM	10 to 100 nM	< 10 nM	< 10 nM	
CC(C)(C)C(=O)NC(=O)Nc1ccc(Oc2ccnc(NC(=O)N3CCOCC3)c2)cn1 [Example 46, N-(4-((6-(3-pivaloylureido)pyridin-3-yl)oxy)pyridin-2-yl)morpholine-4-carboxamide]	< 10 nM	100 to 1000 nM	100 to 1000 nM	< 10 nM	< 10 nM	< 10 nM	
CC(=O)Nc1cc(Oc2ccc(NC(=O)NC(=O)C3CCCC3)nc2)ccn1 [Example 2, N-((5-((2-acetamidopyridin-4-yl)oxy)pyridin-2-yl)carbamoyl)cyclopentanecarboxamide]	< 10 nM	100 to 1000 nM	< 10 nM	10 to 100 nM	< 10 nM	10 to 100 nM	
CN1CCC(C(=O)Nc2cc(Oc3ccc(NC(=O)NC(=O)C4(C)CC4)nc3)ccn2)CC1 [Example 33, 1-methyl-N-(4-((6-(3-(1-methylcyclopropanecarbonyl)ureido)pyridin-3-yl)oxy)pyridin-2-yl)piperidine-4-carboxamide]	10 to 100 nM	> 1000 nM	100 to 1000 nM	100 to 1000 nM	10 to 100 nM	10 to 100 nM	
CC1(C(=O)NC(=O)Nc2ccc(Oc3ccnc(NC(=O)C4CC4)c3)cn2)CC1 [Example 30, N-((5-((2-(cyclopropanecarboxamido)pyridin-4-yl)oxy)pyridin-2-yl)carbamoyl)-1-methylcyclopropanecarboxamide]	< 10 nM	10 to 100 nM	100 to 1000 nM	10 to 100 nM	< 10 nM	< 10 nM	

Source: patent publication US9309224B2 (Deciphera Pharmaceuticals, LLC, priority 2013, dated 2016)
